Results: ChEMBL document CHEMBL6103624, “Design, Synthesis, and Biological Evaluation of Marchantin C-NO Donor Hybrids for Overcoming Pgp-Mediated Drug Resistance by Targeting Lysosome” (J Med Chem, 2025)
pIC50: −log10 of the molar value. Activity calls are given as the source filed them. No cut-off for these calls is given here.

Experiments:
[1] = test system: NCI/ADR-RES; test: Antiproliferative activity against human MCF7ADR cells assessed as inhibition of cell growth incubated for 48 hrs by MTT assay; type: functional, cell-based
[2] = test system: PC-3; test: Antiproliferative activity against human PC-3 cells assessed as inhibition of cell growth incubated for 48 hrs by MTT assay; type: functional, cell-based; conditions: PC-3, 48 h
[3] = test system: NCI/ADR-RES; test: Induction of NO release in human MCF7ADR cells at 100 uM by Griess reagent assay; type: functional, cell-based; conditions: time <= 10.0 hrs
[4] = test system: MCF7; test: Induction of NO release in human MCF7 cells at 100 uM measured for 5 hrs by Griess reagent assay; type: functional, cell-based
[5] = test system: HepG2; test: Antiproliferative activity against human HepG2 cells assessed as inhibition of cell growth incubated for 48 hrs by MTT assay; type: functional, cell-based; conditions: HepG2, 48 h
[6] = test system: A549; test: Antiproliferative activity against human A549 cells assessed as inhibition of cell growth incubated for 48 hrs by MTT assay; type: functional, cell-based; conditions: A549, 48 h
[7] = test system: NCI/ADR-RES; test: Induction of NO release in human MCF7ADR cells at 100 uM measured for 5 hrs by Griess reagent assay; type: functional, cell-based
[8] = test system: MCF7; test: Antiproliferative activity against human MCF7 cells assessed as inhibition of cell growth incubated for 48 hrs by MTT assay; type: functional, cell-based; conditions: MCF7, 48 h
[9] = test system: NCI/ADR-RES; test: Induction of cell cycle arrest in human MCF7ADR cells assessed as accumulation of cells at G2/M phase at 20 nM incubated for 24 hrs by flow cytometry analysis (reference value: 11.2%); type: functional
[10] = target: T1, ATP-dependent translocase ABCB1 (Homo sapiens, UniProt P08183); test: Inhibition of P-gp-mediated rhodamine-123 efflux in human MCF7 cells assessed as increase in Rh123 accumulation incubated for 4 hrs by flow cytometry analysis; type: cell-based; conditions: mcf7, 4 h, at 10 to 50 nM, dose 10-50 nM
[11] = Induction of NO release in lysosome of human A549/Taxol cells assessed as increase in green fluorescence intensity at 100 nM by Lyso-NO probe based laser scanning confocal microscopic analysis; type: subcellular; conditions: 0.1 µM, time 1-3 hrs
[12] = Induction of NO release in lysosome of human MCF-7/ADR cells assessed as increase in green fluorescence intensity at 100 nM by Lyso-NO probe based laser scanning confocal microscopic analysis; type: subcellular; conditions: 0.1 µM, time 1-3 hrs
[13] = Toxicity in BALB/c mouse xenografted with human MCF7ADR cells assessed as heart damage at 1.25 to 5 mg/kg, ip measured for 21 days by H and E staining based analysis; type: organism-based; conditions: in vivo, 504 h, dose 1.25-5 mg/kg, time 21 day
[14] = test system: NCI/ADR-RES; test: Inhibition of colony formation in human MCF7ADR cells assessed as reduction in colony growth at 40 nM incubated for 12 days in presence of hemoglobin by crystal violet staining based assay; type: functional, cell-based; conditions: time 12.0 day
[15] = test system: NCI/ADR-RES; test: Induction of apoptosis in human MCF7ADR cells assessed as increase in PARP1 cleavage at 25 to 50 nM incubated for 24 hrs by Western blot analysis; type: functional, cell-based; conditions: dose 25-50 nM
[16] = test system: NCI/ADR-RES; test: Induction of apoptosis in human MCF7ADR cells at 25 to 50 nM incubated for 24 hrs by Annexin V-FITC/PI staining based flow cytometry analysis; type: functional; conditions: dose 25-50 nM
[17] = test system: NCI/ADR-RES; test: Downregulation of Bcl-2 expression in human MCF7ADR cells incubated for 24 hrs by Western blot analysis; type: functional, cell-based; conditions: dose 25-50 nM
[18] = test system: A549/TR; test: Upregulation of P-gp expression in human A549/Taxol cells at 1 to 4 uM incubated for 24 hrs by Western blot analysis; type: functional, cell-based; conditions: dose 1-4 µM
[19] = test system: NCI/ADR-RES; test: Inhibition of colony formation in human MCF7ADR cells assessed as reduction in colony growth at 40 to 50 nM incubated for 12 days by crystal violet staining based assay; type: functional, cell-based; conditions: dose 40-50 nM, time 12.0 day
[20] = Toxicity in BALB/c mouse xenografted with human MCF7ADR cells assessed as spleen damage at 1.25 to 5 mg/kg, ip measured for 21 days by H and E staining based analysis; type: organism-based; conditions: in vivo, 504 h, dose 1.25-5 mg/kg, time 21 day
[21] = test system: NCI/ADR-RES; test: Upregulation of Bax expression in human MCF7ADR cells incubated for 24 hrs by Western blot analysis; type: functional, cell-based; conditions: dose 25-50 nM
[22] = test system: NCI/ADR-RES; test: Antitumor activity against human MCF7ADR cells xenografted in BALB/c mouse at 1.25 mg/kg, ip measured for 21 days; type: functional, organism-based; conditions: time 21.0 day
[23] = test system: NCI/ADR-RES; test: Antitumor activity against human MCF7ADR cells xenografted in BALB/c mouse assessed as inhibition of tumor volume at 5 mg/kg, ip measured for 21 days; type: functional; conditions: 504 h, time 21 day
[24] = Cytotoxicity against human MCF-10A cells assessed as inhibition of cell growth incubated for 48 hrs by MTT assay; type: toxicity, cell-based
[25] = test system: A549/TR; test: Antiproliferative activity against human A549/Taxol cells assessed as inhibition of cell growth incubated for 48 hrs by MTT assay; type: functional, cell-based
[26] = test system: NCI/ADR-RES; test: Induction of ROS production in human MCF-7/ADR cells in presence of NAC; type: functional, cell-based
[27] = Drug localization in lysosome of human MCF-7/ADR cells assessed as emission of yellow fluorescence incubated for 1 hr by DAPI staining based laser scanning confocal microscopic analysis; type: ADME, subcellular
[28] = test system: NCI/ADR-RES; test: Induction of cell cycle arrest in human MCF7ADR cells assessed as accumulation of cells at G2/M phase at 40 nM incubated for 24 hrs by flow cytometry analysis (reference value: 11.2%); type: functional
[29] = test system: Lysosomal membrane; test: Induction of lysosomal membrane permeabilization in human MCF7ADR cells assessed as increase fluorescence intensity incubated for 6 hrs by LysoTracker red probe based laser scanning confocal microscopic analysis; type: subcellular; conditions: dose 50-100 nM
[30] = test system: NCI/ADR-RES; test: Induction of ROS production in human MCF-7/ADR cells in presence of elacridar; type: functional, cell-based
[31] = Selectivity index, ratio of IC50 for antiproliferative activity against human MCF7 cells assessed as inhibition of cell growth to IC50 for antiproliferative activity against human MCF7ADR cells assessed as inhibition of cell growth; type: functional
[32] = test system: NCI/ADR-RES; test: Upregulation of Caspase-3 expression in human MCF7ADR cells at 25 to 50 nM incubated for 24 hrs by Western blot analysis; type: functional, cell-based; conditions: dose 25-50 nM
[33] = target: T1, ATP-dependent translocase ABCB1; test: Inhibition of P-gp-mediated rhodamine-123 efflux in human MCF-7/ADR cells assessed as increase in Rh123 accumulation incubated for 4 hrs by flow cytometry analysis; type: cell-based; conditions: at 10 to 50 nM, dose 10-50 nM
[34] = test system: NCI/ADR-RES; test: Induction of cell cycle arrest in human MCF7ADR cells assessed as accumulation of cells at G2/M phase at 30 nM incubated for 24 hrs by flow cytometry analysis (reference value: 11.2%); type: functional
[35] = test system: NCI/ADR-RES; test: Upregulation of P-gp expression in human MCF-7/ADR cells at 25 to 100 nM incubated for 24 hrs by Western blot analysis; type: functional, cell-based; conditions: dose 25-100 nM
[36] = test system: NCI/ADR-RES; test: Induction of apoptosis in human MCF7ADR cells incubated for 24 hrs by Annexin V-FITC/PI staining based flow cytometry analysis; type: functional, cell-based; conditions: dose 25-50 nM
[37] = test system: NCI/ADR-RES; test: Upregulation of m-CTSD expression in human MCF7ADR cells at 50 to 100 nM incubated for 24 hrs by Western blot analysis; type: functional, cell-based; conditions: dose 50-100 nM
[38] = test system: NCI/ADR-RES; test: Antitumor activity against human MCF7ADR cells xenografted in BALB/c mouse at 1.25 to 5 mg/kg, ip measured for 21 days; type: functional, organism-based; conditions: dose 1.25-5 mg/kg, time 21.0 day
[39] = test system: NCI/ADR-RES; test: Antitumor activity against human MCF7ADR cells xenografted in ip dosed BALB/c mouse assessed as decrease in ki67 expression measured for 21 days; type: functional, organism-based; conditions: dose 1.25-5 mg/kg, time 21.0 day
[40] = Toxicity in BALB/c mouse xenografted with human MCF7ADR cells assessed as liver damage at 1.25 to 5 mg/kg, ip measured for 21 days by H and E staining based analysis; type: organism-based; conditions: in vivo, 504 h, dose 1.25-5 mg/kg, time 21 day
[41] = test system: NCI/ADR-RES; test: Induction of NO release in human MCF7ADR cells by DAF-FM DA probe based analysis; type: functional, cell-based; conditions: dose 50-100 nM
[42] = Cytotoxicity against human BEAS-2B cells assessed as inhibition of cell growth incubated for 48 hrs by MTT assay; type: toxicity, cell-based
[43] = Toxicity in BALB/c mouse xenografted with human MCF7ADR cells assessed as change in body weight at 1.25 to 5 mg/kg, ip measured for 21 days; type: organism-based; conditions: in vivo, 504 h, dose 1.25-5 mg/kg, time 21 day
[44] = Toxicity in BALB/c mouse xenografted with human MCF7ADR cells assessed as lung damage at 1.25 to 5 mg/kg, ip measured for 21 days by H and E staining based analysis; type: organism-based; conditions: in vivo, 504 h, dose 1.25-5 mg/kg, time 21 day
[45] = Selectivity index, ratio of IC50 for antiproliferative activity against human A549 cells assessed as inhibition of cell growth to IC50 for antiproliferative activity against human A549/Taxol cells assessed as inhibition of cell growth; type: functional
[46] = test system: A549; test: Upregulation of P-gp expression in human A549 cells at 1 to 4 uM incubated for 24 hrs by Western blot analysis; type: functional, cell-based; conditions: dose 1-4 µM
[47] = test system: MCF7; test: Upregulation of P-gp expression in human MCF7 cells at 25 to 100 nM incubated for 24 hrs by Western blot analysis; type: functional, cell-based; conditions: dose 25-100 nM
[48] = Toxicity in BALB/c mouse xenografted with human MCF7ADR cells assessed as kidney damage at 1.25 to 5 mg/kg, ip measured for 21 days by H and E staining based analysis; type: organism-based; conditions: in vivo, 504 h, dose 1.25-5 mg/kg, time 21 day
[49] = Selectivity index, ratio of IC50 for human MCF-10A to IC50 for human MDA-MB-231 cells; type: toxicity; conditions: MCF-10A cells and MDA-MB-231 cells, read-out: Ratio IC50

T1 sequence (P08183 whole entry): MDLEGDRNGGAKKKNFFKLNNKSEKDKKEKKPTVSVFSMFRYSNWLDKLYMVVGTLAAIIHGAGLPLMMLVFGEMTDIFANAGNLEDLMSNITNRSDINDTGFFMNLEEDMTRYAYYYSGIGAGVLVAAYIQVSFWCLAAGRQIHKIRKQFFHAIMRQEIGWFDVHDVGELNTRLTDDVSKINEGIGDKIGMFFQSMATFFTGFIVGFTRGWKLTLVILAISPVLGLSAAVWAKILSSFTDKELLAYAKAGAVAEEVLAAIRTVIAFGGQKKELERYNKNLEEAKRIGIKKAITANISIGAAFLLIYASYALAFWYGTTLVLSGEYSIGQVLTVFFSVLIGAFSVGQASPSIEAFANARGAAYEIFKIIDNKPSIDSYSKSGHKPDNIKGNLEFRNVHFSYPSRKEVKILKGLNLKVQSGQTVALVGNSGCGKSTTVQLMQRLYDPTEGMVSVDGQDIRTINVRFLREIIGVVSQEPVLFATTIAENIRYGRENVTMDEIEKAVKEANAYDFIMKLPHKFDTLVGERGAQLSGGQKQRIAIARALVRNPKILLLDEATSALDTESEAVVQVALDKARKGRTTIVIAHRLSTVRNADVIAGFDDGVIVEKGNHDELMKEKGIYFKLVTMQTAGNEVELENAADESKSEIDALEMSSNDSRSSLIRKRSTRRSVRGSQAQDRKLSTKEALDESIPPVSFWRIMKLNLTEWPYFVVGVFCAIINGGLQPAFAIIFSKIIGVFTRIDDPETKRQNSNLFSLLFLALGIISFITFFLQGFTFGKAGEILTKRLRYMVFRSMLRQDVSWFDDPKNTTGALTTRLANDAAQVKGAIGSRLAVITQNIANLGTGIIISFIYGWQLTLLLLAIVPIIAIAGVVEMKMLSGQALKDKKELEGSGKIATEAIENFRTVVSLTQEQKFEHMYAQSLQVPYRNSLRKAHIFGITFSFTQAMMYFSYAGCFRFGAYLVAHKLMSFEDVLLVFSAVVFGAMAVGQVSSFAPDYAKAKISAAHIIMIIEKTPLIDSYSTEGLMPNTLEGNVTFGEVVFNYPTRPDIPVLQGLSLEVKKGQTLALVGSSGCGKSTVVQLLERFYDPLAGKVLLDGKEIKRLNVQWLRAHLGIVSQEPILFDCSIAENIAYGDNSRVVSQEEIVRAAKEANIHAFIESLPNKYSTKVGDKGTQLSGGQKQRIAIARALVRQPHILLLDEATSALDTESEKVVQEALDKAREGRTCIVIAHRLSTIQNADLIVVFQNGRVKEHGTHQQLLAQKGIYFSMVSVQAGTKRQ

In the case of `O=[N+]([O-])OCC(COc1cccc2c1Oc1cccc(c1)CCc1ccc(O)c(c1)Oc1ccc(cc1)CC2)O[N+](=O)[O-]` (stereo unspecified), the pIC50 [1] was under 4.70, the pIC50 [2] was 4.93 and the Activity [3] was “Time-dependent-effect”. The Activity [4] was “inactive”, the pIC50 [5] was under 4.70 and the pIC50 [6] was under 4.40. For the same compound, the Activity [7] was “inactive” and the pIC50 [8] was under 4.70.
For `O=S(=O)(c1ccccc1)c1c(OCCCOc2cccc3c2Oc2cccc(c2)CCc2ccc(O)c(c2)Oc2ccc(cc2)CC3)no[n+]1[O-]`, the Activity [9] was 18.1%, the “inhibition (INH)” value [10] was “Dose-dependent-effect” and the Activity [11] was “Time-dependent-effect”. For the same compound, the Activity [12] was “Time-dependent-effect”, the pIC50 [1] was 7.62 and the Activity [13] was “Non-toxic”. The inhibition [14] was “Active”, the Activity [15] was “Active” and the Activity [16] was 8.6%. For the same compound, the Activity [17] was “Dose-dependent-effect”, the Activity [18] was “Active” and the inhibition [19] was “Active”. For the same compound, the pIC50 [2] was 5.47, the Activity [20] was “Non-toxic” and the Activity [21] was “Dose-dependent-effect”. The Activity [22] was “Active”, the inhibition in vivo at 5 mg/kg [23] was 62.7% and the IC50 at 48 h [24] was 14.3 µM. The pIC50 [25] was 5.84, the Activity [26] was “Active” and the Drug uptake [27] was “Active”. The Activity [28] was 25.3%, the Activity [29] was “Dose-dependent-effect” and the Activity [30] was “Active”. The “Ratio IC50” value [31] was 883, the Activity [32] was “Active” and the “inhibition (INH)” value [33] was “Dose-dependent-effect”. For the same compound, the Activity [3] was “Time-dependent-effect”, the Activity [34] was 20.3% and the Activity [35] was “Active”. The Activity [36] was “Dose-dependent-effect”, the Activity [37] was “Active” and the Activity [38] was “Active; Displayed Strong Antitumor Activity Than Ptx”. The pIC50 [5] was 5.18, the Activity [39] was “Dose-dependent-effect” and the Activity [40] was “Non-toxic”. The Activity [41] was “Dose-dependent-effect”, the IC50 at 48 h [42] was 14.8 µM and the Activity [43] was “Non-toxic”. For the same compound, the pIC50 [6] was 4.62, the Activity [44] was “Non-toxic” and the Activity [7] was “Active”. The pIC50 [8] was 4.67, the “Ratio IC50” value [45] was 17 and the Activity [46] was “Active”. The Activity [47] was “inactive” and the Activity [48] was “Non-toxic”.
`CCN(CC)c1ccc2cc(C(=O)OCCCCCOc3cc4ccc(=O)oc4cc3OCCCCCCOc3no[n+]([O-])c3S(=O)(=O)c3ccccc3)c(=O)oc2c1` gave a selectivity ratio [49] of over 6250.
